Source: the supplement of paper PMC11451515

System: SEM cells
Assay: cell viability relative to DMSO control; higher = less cytotoxic
Conditions: 48 h
Summary of the method: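 Viability, reported as a per-plate percentage of DMSO wells with cell-free wells as background, came from CellTiter-Glo One luminescence. Reading took place after 48 h at 37°C. Before that, NOMO1 or SEM (500 cells/well) or P12-Ichikawa (1000 cells/well) leukemia cells, adapted for at least four passages in each medium, were seeded in 1536-well plates (5 μl) and pin-dosed with library compounds in DMSO, 47 μM to 0.79 nM over 11 threefold points.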

[1] = HPLM + 10% dialyzed FBS, 0.000781 µM
[2] = HPLM + 10% dialyzed FBS, 0.00234 µM
[3] = HPLM + 10% dialyzed FBS, 0.00702 µM
[4] = HPLM + 10% dialyzed FBS, 0.0211 µM
[5] = HPLM + 10% dialyzed FBS, 0.0632 µM
[6] = HPLM + 10% dialyzed FBS, 0.19 µM
[7] = HPLM + 10% dialyzed FBS, 0.569 µM
[8] = HPLM + 10% dialyzed FBS, 1.71 µM
[9] = HPLM + 10% dialyzed FBS, 5.12 µM
[10] = HPLM + 10% dialyzed FBS, 15.4 µM
[11] = HPLM + 10% dialyzed FBS, 46.1 µM
[12] = RPMI 5 mM glucose + 10% FBS, 0.000781 µM
[13] = RPMI 5 mM glucose + 10% FBS, 0.00234 µM
[14] = RPMI 5 mM glucose + 10% FBS, 0.00702 µM
[15] = RPMI 5 mM glucose + 10% FBS, 0.0211 µM
[16] = RPMI 5 mM glucose + 10% FBS, 0.0632 µM
[17] = RPMI 5 mM glucose + 10% FBS, 0.19 µM
[18] = RPMI 5 mM glucose + 10% FBS, 0.569 µM
[19] = RPMI 5 mM glucose + 10% FBS, 1.71 µM
[20] = RPMI 5 mM glucose + 10% FBS, 5.12 µM
[21] = RPMI 5 mM glucose + 10% FBS, 15.4 µM
[22] = RPMI 5 mM glucose + 10% FBS, 46.1 µM
[23] = RPMI 5 mM glucose + 10% dialyzed FBS, 0.000781 µM
[24] = RPMI 5 mM glucose + 10% dialyzed FBS, 0.00234 µM
[25] = RPMI 5 mM glucose + 10% dialyzed FBS, 0.00702 µM
[26] = RPMI 5 mM glucose + 10% dialyzed FBS, 0.0211 µM
[27] = RPMI 5 mM glucose + 10% dialyzed FBS, 0.0632 µM
[28] = RPMI 5 mM glucose + 10% dialyzed FBS, 0.19 µM
[29] = RPMI 5 mM glucose + 10% dialyzed FBS, 0.569 µM
[30] = RPMI 5 mM glucose + 10% dialyzed FBS, 1.71 µM
[31] = RPMI 5 mM glucose + 10% dialyzed FBS, 5.12 µM
[32] = RPMI 5 mM glucose + 10% dialyzed FBS, 15.4 µM
[33] = RPMI 5 mM glucose + 10% dialyzed FBS, 46.1 µM

Row | SMILES | cell viability [1] [%] | cell viability [2] [%] | cell viability [3] [%] | cell viability [4] [%] | cell viability [5] [%] | cell viability [6] [%] | cell viability [7] [%] | cell viability [8] [%] | cell viability [9] [%] | cell viability [10] [%] | cell viability [11] [%] | cell viability [12] [%] | cell viability [13] [%] | cell viability [14] [%] | cell viability [15] [%] | cell viability [16] [%] | cell viability [17] [%] | cell viability [18] [%] | cell viability [19] [%] | cell viability [20] [%] | cell viability [21] [%] | cell viability [22] [%] | cell viability [23] [%] | cell viability [24] [%] | cell viability [25] [%] | cell viability [26] [%] | cell viability [27] [%] | cell viability [28] [%] | cell viability [29] [%] | cell viability [30] [%] | cell viability [31] [%] | cell viability [32] [%] | cell viability [33] [%]
1 | CC(C)N(CCCNC(=O)Nc1ccc(C(C)(C)C)cc1)C[C@H]1O[C@@H](n2cc(Br)c3c(N)ncnc32)[C@H](O)[C@@H]1O | 87.3 | 99.8 | 96.6 | 98.8 | 105 | 101 | 85.1 | 98.4 | 104 | 72.4 | 18 | 83.1 | 98.3 | 115 | 104 | 114 | 109 | 106 | 104 | 77.4 | 77.2 | 17.1 | 67.2 | 92.6 | 98.9 | 92.5 | 89.7 | 91.4 | 87.7 | 80.2 | 83.5 | 78.9 | 26.3
2 | CN1CCN(c2cc(C(=O)Nc3ccc4c(c3)-c3c(c(C(N)=O)nn3-c3ccc(F)cc3)CC4)c(Cl)cn2)CC1 | 93.3 | 95.7 | 103 | 109 | 116 | 110 | 105 | 103 | 110 | 81.8 | 4.03 | – | – | – | – | – | – | – | – | – | – | – | 125 | 109 | 121 | 131 | 138 | 120 | 103 | 104 | 109 | 106 | 3.39
3 | N[C@@H](Cc1cc(I)c(Oc2cc(I)c(O)c(I)c2)c(I)c1)C(=O)O | 102 | 121 | 107 | 113 | 78.2 | 129 | 119 | 120 | 117 | 93.8 | 92.2 | 98.2 | 105 | 103 | 106 | 59.2 | 112 | 115 | 104 | 94.2 | 88.3 | 84.6 | – | – | – | – | – | – | – | – | – | – | –
4 | CCN(CC)CCNC(=O)c1ccc2nc(-c3ccccc3)c(-c3ccc(CN4CCC(n5c(=O)[nH]c6ccccc65)CC4)cc3)nc2c1 | 108 | 116 | 120 | 103 | 83.8 | 54 | 36.8 | 26.7 | 4.83 | 4.21 | 3.45 | 108 | 106 | 124 | 83.8 | 56.4 | 34.4 | 32.9 | 28.9 | 11 | 7.63 | 3.28 | 117 | 112 | 127 | 92.2 | 75.7 | 56.5 | 45.8 | 32.6 | 13.6 | 5.86 | 3.2
5 | CN(C)c1ccccc1CN1CCCN(Cc2ccccc2N(C)C)C1c1ccncc1 | 81.3 | 91.2 | 86.8 | 23 | 95.2 | 94.9 | 92.5 | 92.6 | 112 | 97.1 | 83.3 | 75.5 | 85.3 | 102 | 15 | 104 | 99.3 | 101 | 93.9 | 93.4 | 5.51 | 49.4 | 73.4 | 79.7 | 95.1 | 18.1 | 117 | 111 | 113 | 98.3 | 98.2 | 87.8 | 80
6 | NC(=O)[C@@H](CCC(F)(F)F)N(Cc1ccc(-c2ncon2)cc1F)[S+](=O)([O-])c1ccc(Cl)cc1 | 96.6 | 106 | 102 | 106 | 103 | 98.8 | 81.4 | 90.9 | 91.5 | 72.2 | 4.51 | 114 | 108 | 104 | 114 | 114 | 92.9 | 83.8 | 81.9 | 84.3 | 30 | 2.87 | 84.4 | 98.6 | 98.2 | 98.7 | 86.3 | 88.6 | 95.8 | 79.5 | 70.9 | 52.3 | 2.93
7 | N[C@@H](Cc1ccc(N(CCCl)CCCl)cc1)C(=O)O | 118 | 124 | 125 | 128 | 126 | 116 | 119 | 103 | 48.6 | 18.3 | 11.8 | – | – | – | – | – | – | – | – | – | – | – | 114 | 115 | 120 | 126 | 134 | 123 | 107 | 90.7 | 34.4 | 13.7 | 5.98
8 | COCCNCCCn1c(C(=O)CF)c(-c2ccc(C)cc2)c2c(N)ncnc21 | 109 | 113 | 105 | 101 | 101 | 105 | 107 | 99.7 | 87 | 71.7 | 56.4 | – | – | – | – | – | – | – | – | – | – | – | 106 | 102 | 111 | 104 | 114 | 103 | 96.7 | 68.2 | 72.5 | 71.9 | 54.5
